The record followed here is DBAASP.

Molecules are shown by their SMILES. Values after ≈ are worked out from the molar mass of the structure shown. Bounds are passed on as bounds.

Some test systems named below: Bacillus megaterium Bm11; Staphylococcus capitis 1; Vibrio alginolyticus; Vibrio vulnificus 204; Bacillus cereus; Escherichia coli; Leuconostoc lactis; Listeria innocua; Micrococcus luteus; Pasteurella multocida; Staphylococcus aureus; Streptococcus uberis; Candida albicans; Klebsiella pneumoniae; Proteus mirabilis; Pseudomonas aeruginosa; Salmonella typhimurium; Serratia marcescens; Shigella dysenteriae; Proteus vulgaris.

Holding throughout (assay): ≥ marks a high value that may be exact or a test limit, other limits are often not marked, values filed in µg/mL are converted to µM
Experiment [1] deals with Candida albicans ATCC 10231.
The subject of experiment [2] is Escherichia coli ATCC 25922.
The test system of experiment [3] is Staphylococcus aureus Cowan 1.
In experiment [4] the test system is Yersinia pseudotuberculosis YPIII.
Experiment [5] deals with Aeromonas hydrophila BCRC 13018.
The test system of experiment [6] is Enterococcus faecalis BCRC 10066.
For experiment [7], the system named is Pseudomonas aeruginosa ATCC 19660.
Experiment [8] concerns Streptococcus agalactiae 819.
In experiment [9] the test system is Streptococcus agalactiae BCRC 10787.
The subject of experiment [10] is Staphylococcus epidermidis.
The test system of experiment [11] is Aspergillus flavus KCTC 7375.
The subject of experiment [12] is Bacillus megaterium KCTC 1096.
Experiment [13] relates to Bacillus subtilis KCTC 1918.
For experiment [14], the system named is Candida albicans KCTC 7121.
Experiment [15] relates to Escherichia coli KCTC 1682.
In experiment [16] the test system is Fusarium oxysporum KCTC 6084.
Experiment [17] relates to Pseudomonas aeruginosa KCTC 1637.
The subject of experiment [18] is Staphylococcus aureus KCTC 1621.
The test system of experiment [19] is Trichosporon beigelii KCTC 7251.

The MIC is the least concentration at which growth counts as inhibited. Low readings indicate a more susceptible organism, high ones a less susceptible organism. As for `CC[C@H](C)[C@H](NC(=O)CNC(=O)[C@H](CO)NC(=O)[C@H](CC(C)C)NC(=O)[C@@H](NC(=O)[C@H](CCCN=C(N)N)NC(=O)CNC(=O)[C@@H](NC(=O)[C@H](C)NC(=O)[C@@H]1CCCN1C(=O)[C@H](CC(C)C)NC(=O)[C@@H](N)Cc1ccccc1)[C@@H](C)CC)C(C)C)C(=O)N[C@@H](CC(C)C)C(N)=O` [FLPAIGRVLSGIL], the MIC against Bacillus megaterium Bm11 was 5 µM (≈ 6.77 µg/mL); in [1], 10 µM (≈ 13.5 µg/mL); in experiment [2], greater than 40 µM; in [3] it was no less than 40 µM; against Staphylococcus capitis 1, 20 µM (≈ 27.1 µg/mL); in experiment [4], no less than 40 µM.

For the compound `CC[C@H](C)[C@H](NC(=O)CNC(=O)[C@H](CO)NC(=O)[C@H](CC(C)C)NC(=O)[C@H](C)NC(=O)[C@H](CCCN=C(N)N)NC(=O)CNC(=O)[C@@H](NC(=O)[C@H](CC(C)C)NC(=O)[C@@H]1CCCN1C(=O)[C@H](CC(C)C)NC(=O)[C@@H](N)Cc1ccccc1)[C@@H](C)CC)C(=O)N[C@@H](CC(C)C)C(N)=O` [FLPLIGRALSGIL], the minimal inhibitory concentration (MIC) is 5 µM (≈ 6.84 µg/mL) in the experiment with Bacillus megaterium Bm11; 10 µM (≈ 13.7 µg/mL) in [1]; greater than 40 µM in [2]; 20 µM (≈ 27.4 µg/mL) in experiment [3]; 20 µM (≈ 27.4 µg/mL) with Staphylococcus capitis 1; no less than 40 µM in experiment [4].

As for `CC[C@H](C)[C@H](NC(=O)[C@H](C)NC(=O)[C@H](CC(=O)O)NC(=O)[C@H](Cc1c[nH]c2ccccc12)NC(=O)[C@@H](NC(=O)[C@H](CS)NC(=O)[C@H](CCC(=O)O)NC(=O)CN)[C@@H](C)CC)C(=O)N[C@@H](Cc1ccccc1)C(=O)N[C@@H](Cc1cnc[nH]1)C(=O)NCC(=O)N[C@@H](C)C(=O)N[C@@H](CCCCN)C(=O)N[C@@H](Cc1cnc[nH]1)C(=O)N[C@@H](Cc1ccccc1)C(=O)N[C@@H](CC(C)C)C(=O)N[C@@H](Cc1cnc[nH]1)C(=O)N[C@@H](CCCN=C(N)N)C(=O)N[C@@H](CC(C)C)C(=O)N[C@H](C(=O)N[C@@H](CC(N)=O)C(=O)N1CCC[C@H]1C(N)=O)C(C)C` [GECIWDAIFHGAKHFLHRLVNP], the MIC (in [5]; in [6]; in experiment [7]; in [8]; in experiment [9]; in the experiment on Vibrio alginolyticus) was 7.62 µM (≈ 19.5 µg/mL) in each case. Further, the MIC in the experiment on Vibrio vulnificus 204 was 7.62 µM (≈ 19.5 µg/mL).

For the compound `CC[C@H](C)[C@H](NC(=O)[C@@H](NC(=O)[C@H](C)NC(=O)[C@H](C)NC(=O)[C@@H](NC(=O)[C@H](CCCCN)NC(=O)[C@H](CCCCN)NC(=O)[C@@H](NC(=O)[C@@H](NC(=O)[C@H](CC(=O)O)NC(=O)[C@H](Cc1ccccc1)NC(=O)[C@H](CC(C)C)NC(=O)CN)C(C)C)[C@@H](C)CC)C(C)C)C(C)C)C(=O)NCC(=O)NCC(=O)N[C@@H](CC(C)C)C(N)=O` [GLFDVIKKVAAVIGGL], the MIC was 31.3 µM (≈ 50 µg/mL) in the experiment with Bacillus cereus; greater than 62.5 µM in the experiment with Escherichia coli; 3.75 µM (≈ 6 µg/mL) in the experiment with Leuconostoc lactis; no less than 62.5 µM in the experiment on Listeria innocua; 7.5 µM (≈ 12 µg/mL) in the experiment on Micrococcus luteus; no less than 62.5 µM against Pasteurella multocida. Further, the MIC (in the experiment with Staphylococcus aureus; in [10]; in the experiment on Streptococcus uberis) was 15.6 µM (≈ 25 µg/mL) throughout.

Turning to `CC(C)C[C@@H]1NC(=O)CNC(=O)[C@H](CO)NC(=O)[C@H](C(C)C)NC(=O)CNC(=O)[C@@H](NC(=O)[C@H](CC(C)C)NC(=O)[C@@H](NC(=O)[C@H](CCCCN)NC(=O)[C@H](CCCCN)NC(=O)CNC(=O)[C@@H](NC(=O)CNC(=O)[C@H](CC(C)C)NC(=O)[C@@H](NC(=O)[C@H](CCCCN)NC(=O)[C@H](CO)NC(=O)[C@H](CC(C)C)NC(=O)[C@H](CC(C)C)NC(=O)CN)C(C)C)C(C)C)C(C)C)CSSC[C@@H](C(=O)O)NC1=O` [GLLSKVLGVGKKVLCGVSGLC], the minimal inhibitory concentration (MIC) is 73.9 µM (≈ 150 µg/mL) in the experiment on Candida albicans; 5 µM (≈ 10.1 µg/mL) with Escherichia coli; 4.92 µM (≈ 9.99 µg/mL) with Klebsiella pneumoniae; 1.23 µM (≈ 2.5 µg/mL) in the experiment with Micrococcus luteus; no less than 98.5 µM against Proteus mirabilis; 49.2 µM (≈ 99.9 µg/mL) with Pseudomonas aeruginosa. Further, the minimum inhibitory concentration (MIC) in the experiment on Salmonella typhimurium is 11.1 µM (≈ 22.5 µg/mL); against Serratia marcescens, no less than 98.5 µM; in the experiment on Shigella dysenteriae, 4.92 µM (≈ 9.99 µg/mL); with Staphylococcus aureus it was 15 µM (≈ 30.4 µg/mL).

Turning to `CC[C@H](C)[C@H](NC(=O)CNC(=O)[C@H](CCC(=O)O)NC(=O)[C@@H](NC(=O)[C@@H](NC(=O)CNC(=O)[C@H](CO)NC(=O)[C@H](C)NC(=O)[C@H](CC(C)C)NC(=O)[C@H](CC(=O)O)NC(=O)CNC(=O)[C@H](C)NC(=O)[C@H](C)NC(=O)[C@H](CCC(N)=O)NC(=O)[C@H](CCCCN)NC(=O)[C@@H](NC(=O)[C@H](CCCCN)NC(=O)[C@H](CCC(N)=O)NC(=O)[C@H](Cc1c[nH]c2ccccc12)NC(=O)[C@H](CC(C)C)NC(=O)CN)[C@@H](C)CC)[C@@H](C)CC)C(C)C)C(=O)N[C@@H](CCCCN)C(=O)N[C@@H](CO)C(N)=O` [GLWQKIKQAAGDLASGIVEGIKS], the MIC is no less than 42.2 µM against Bacillus cereus; 21.1 µM (≈ 50 µg/mL) with Escherichia coli; no less than 42.2 µM in the experiment on Leuconostoc lactis; no less than 42.2 µM against Listeria innocua; 10.5 µM (≈ 25 µg/mL) in the experiment on Micrococcus luteus; no less than 42.2 µM in the experiment on Pasteurella multocida. For the same compound, the MIC against Staphylococcus aureus was greater than 42.2 µM; in [10] it was no less than 42.2 µM; against Streptococcus uberis, no less than 42.2 µM.

Consider `CC[C@H](C)[C@H](NC(=O)[C@H](CCCCN)NC(=O)[C@H](CCCCN)NC(=O)[C@H](Cc1ccccc1)NC(=O)[C@H](Cc1c[nH]c2ccccc12)NC(=O)[C@@H](N)CCCCN)C(=O)N1CCC[C@H]1C(=O)N[C@@H](CCCCN)C(=O)N[C@@H](Cc1ccccc1)C(=O)N[C@@H](CC(C)C)C(=O)N[C@@H](Cc1cnc[nH]1)C(=O)N[C@@H](CC(C)C)C(=O)N[C@@H](C)C(=O)N[C@@H](CCCCN)C(=O)N[C@@H](CCCCN)C(=O)N[C@@H](Cc1ccccc1)C(N)=O` [KWFKKIPKFLHLAKKF], for which the MIC in [11] is no less than 100 µM; in [12] it was 1.56 µM (≈ 3.21 µg/mL); in experiment [13] it was 0.78 µM (≈ 1.61 µg/mL); in experiment [14], no less than 50 µM; in experiment [15], 12.5 µM (≈ 25.7 µg/mL); in experiment [16], no less than 100 µM. Besides, the minimum inhibitory concentration (MIC) against Proteus vulgaris was 3.12 µM (≈ 6.43 µg/mL); in experiment [17], 1.56 µM (≈ 3.21 µg/mL); in experiment [18], 3.12 µM (≈ 6.43 µg/mL); in experiment [19] it was no less than 50 µM.
